In brackets after ≈: the same amount, converted by molar mass. Where two headings read alike, the source gives them in different places.
Experiments:
[1] = background values, cited from earlier work
[2] = J. Voorspoels et al., The Veterinary Record (October 1999); cited from earlier work
[3] = tested on: Caco-2 cell monolayer; experiment: Caco-2 cell monolayer transport; format: in vitro ADME
Procedure: As receiver medium for Caco-2 transport experiments, 0.2 wt.-% TPGS (D-α-tocopherol polyethylene glycol 1000 succinate, commercially available from Eastman, Anglesey, England) in transport medium (hereinafter referred to as TM) [HBSS Hanks' Balanced Salt Solution supplemented with glucose to obtain a final concentration of 25 mM, commercially available from Sigma-Aldrich, Steinheim, Germany and Hepes-buffer (10 mM, pH 7.4, N-2-hydroxyethylpiperazine-N′-2-ethanesulfonic acid, commercially available from Lonza, Verviers, Belgium)] was used. To maintain sink conditions, TPGS was included in the medium added to the basolateral side of the Caco-2 cell monolayer.
Caco-2 cells were purchased from Cambrex Biosciences, Walkersville, Md., United States of America. Caco-2 cells were grown in 75 cm^2 culture flasks at 37° C. in an atmosphere of 5% CO2 and 90% relative humidity. Cells were passaged every 3-4 days (at 70-80% confluence) at a split ratio of 1 to 7. Cells were negative for Mycoplasma infection.
For transport experiments, Caco-2 cells were plated at a density of 88,500 cells/insert on Costar® Transwell membrane inserts (3 μm pore diameter, 12 mm diameter; commercially available from Corning Inc., New York). Confluence was reached within 3-4 days after seeding and the monolayers were used for the experiments 18-19 days post-seeding. Cell passages between 50 and 85 were used in the experiments. Transepithelial Electrical Resistance (hereinafter referred as TEER) values were measured with an EndOhm Voltohmmeter (commercially available from WPI, Aston, England). Only monolayers with initial TEER values higher than 200 Ω·cm^2 were used. All volumes amounted to 0.5 mL at the apical side of the monolayer and 1.5 mL at the basolateral side. After rinsing the monolayers 3 times with TM, a pre-incubation step (30 minutes) with TM (control) was performed.
[…] The samples were diluted with methanol (1:1 volume ratio) and itraconazole concentration was determined by HPLC. TEER values were measured again at the end of the experiment and were higher than 95% of the initial value.

[4] = Oral pharmacokinetics in rabbits; format: in vivo, New Zealand White rabbits; conditions: for Tmax: oral
Procedure: Prior to oral drug administration, the rabbits (n=5) were fasted overnight (>12 hours). After receiving the oral dose, 3 mL of water was administered to facilitate swallowing. After 4 hours, the rabbits had free access to food and water. A wash out period of seven days was allowed between subsequent dose administrations. […] Plasma was then transferred to a fresh Eppendorf tube and frozen at −20° C. prior to analysis.

[5] = male, Wistar, rat, in vivo
Procedure: Male Wistar rats of about 350 g were anaesthetized with a ketamin (Anesketin, commercially available from Eurovet, Heusden, Belgium)—xylazin (Xyl-M 2%, commercially available from VMD, Arendonk, Belgium) mixture (87.5 and 8.75 mg/kg respectively). The left jugular vein was cannulated with a heparinized (50 IU·mL^−1) polyethylene cannula (1.02 mm outer diameter; commercially available from Portex, Kent, United Kingdom) for blood supply from a donor rat during the perfusion experiment. A laparotomy was performed and the small intestine was exposed. A segment of the ileum (4-10 cm) was isolated by inserting two glass cannulas (4 mm o.d., 3 mm i.d.) at the proximal and distal end of the segment. Polyethylene tubing (6.5 mm o.d., 3.1 mm i.d.) was connected to the inlet cannula. The intestinal content was removed by perfusing the segment with pre-warmed TM (38° C.) at a flow rate of 3 mL/min. The perfusion pump (Minipuls3, commercially available from Gilson, Middleton, USA) was placed between the reservoir and the inlet cannula. After pre-incubation of the intestine with TM, the mesenteric vein draining the isolated part of the ileum was cannulated using the top end (1 cm) of a catheter (Insyte-W® 0.7×19 mm, commercially available from Beckton Dickinson, Salt Lake City, Utah). […]
Plasma concentrations of itraconazole were determined by HPLC as follows. […]

[6] = Oral pharmacokinetics in dogs; conditions: for systemic exposure after oral dosing (HPLC-UV): dogs, oral 20 mg, 4 dogs
Procedure: Details of the dog's experiments were as follows: Marshall Beagle dogs (1.5-3 years of age, 7.1-10.0 kg, male) were housed according to Belgian laws and European regulations for animal experiments, and with free access to water and food. The comparative bioavailability study was performed according to a cross-over design (n=5). After administration of the capsules, 10 mL of water was given to facilitate swallowing. The evaluation of the formulation containing pure crystalline itraconazole was performed with 4 dogs. Blood samples (2.5 mL) were collected from the vena jugularis before dosing and at 0.25, 0.5, 1, 2, 3, 4, 6, 8 hours respectively after dosing. Immediately after blood collection, plasma was harvested by centrifugation at 2,500 g for 10 minutes. Plasma was then transferred to a fresh tube and frozen at −20° C. prior to analysis.
The mobile phase consisted of a methanol/25 mM sodium acetate mixture (78/22 by volume) at pH 3.3.
The maximal plasma concentrations (Cmax) and the time (Tmax) required to reach Cmax were determined from the individual time versus concentration profiles. Systemic exposure was determined by calculating AUC0-24h (rabbits) and AUC0-8h (dogs) using the linear trapezoidal rule. Pharmacokinetic parameters between the three formulations tested were statistically compared with the non-parametric Wilcoxon signed-rank test. The level of significance was set at p<0.03 for comparing two out of three groups.

[7] = Equilibrium solubility of itraconazole in FaSSIF; format: physicochemical; conditions: thermodynamic from solid; FaSSIF pH 6.5, 37° C., equilibration up to one week

| total transport of itraconazole after 90 minutes ([3]; donor: 10 μM supersaturated condition in FaSSIF (solvent shift)) [µg] | total transport of itraconazole after 90 minutes ([3]; donor: 75 μM supersaturated condition in FaSSIF (solvent shift)) [µg] | total transport of itraconazole after 90 minutes ([3]; donor: saturated itraconazole solution in FaSSIF) [µg] | Tmax ([4]; female, New Zealand White, rabbit, plasma, 8 mg) [h] | Tmax ([4]; female, New Zealand White, rabbit, plasma, 8.4 mg) [h] | AUC(0-t) ([4]; female, New Zealand White, rabbit, plasma, po, 8 mg, single oral capsule dose about 8 mg, n=5, read-out: AUC0-24 h itraconazole) [µM·h] | AUC0-24 h itraconazole ([4]; single oral capsule dose about 8 mg, n=5, listed as crystalline itraconazole) [µM·h] | Total transport after 60 minutes [5] [nmol/cm] | Total transport after 60 minutes ([5]; 75 μM) [nmol/cm] | AUC0-8 h itraconazole ([6]; male, Marshall Beagle, dog, in vivo, po, 20 mg) [µM·h] | solubility thermodynamic [7] [µM] | SMILES | water-solubility [1] | water-solubility ([1]; listed as Florfenicol) | oral bioavailability [2] | systemic exposure after oral dosing (HPLC-UV) ([6]; listed as crystalline itraconazole) | systemic exposure after oral dosing (HPLC-UV) ([6]; listed as pure crystalline itraconazole) |
| --- | --- | --- | --- | --- | --- | --- | --- | --- | --- | --- | --- | --- | --- | --- | --- | --- |
|  |  |  |  |  |  |  |  |  |  |  | CS(=O)(=O)c1ccc([C@@H](O)[C@@H](CF)NC(=O)C(Cl)Cl)cc1 [florfenicol, D-(threo)-1-p-methylsulfonyl phenyl-2-dichloroacetamido-3-fluoro-1-propanol] | 1300 µg/mL | about 1.3 mg/mL | good oral bioavailability |  |  |
| 1.2 | 2.2 | 0.09 | 9.8 | 10 | 0.521 | 0.52 | 0.03 | 0.50 | 0 ± 0 | 0.4 (≈ 0.282 µg/mL) | CCC(C)n1ncn(-c2ccc(N3CCN(c4ccc(OCC5COC(Cn6cncn6)(c6ccc(Cl)cc6Cl)O5)cc4)CC3)cc2)c1=O (centres unmarked) [itraconazole] |  |  |  | no systemic itraconazole could be detected | no systemic concentrations of itraconazole and its main metabolite hydroxy-itraconazole could be observed |
|  |  |  |  |  |  |  |  |  |  |  | CC(C)(C)c1ccc(C(O)CCCN2CCC(C(O)(c3ccccc3)c3ccccc3)CC2)cc1 (centres unmarked) [terfenadine] | less than 0.01 mg/mL |  |  |  |  |
